Measured values published in patent US10913781B2, “Pepducin design and use” (Tufts Medical Center, Inc., priority 2011, dated 2021).
Peptide text beside a SMILES is read from it. * marks the point of attachment. Palmitoyl = CCCCCCCCCCCCCCCC(=O)*

Key:
PAR4 [1] = molecular target: T1, PAR4 (Homo sapiens, UniProt Q96RI0); assay: Calcium flux assay in SW620 cells, PAR4; type: cell-based; design: endogenous in cells
T1 sequence (Q96RI0 18-385): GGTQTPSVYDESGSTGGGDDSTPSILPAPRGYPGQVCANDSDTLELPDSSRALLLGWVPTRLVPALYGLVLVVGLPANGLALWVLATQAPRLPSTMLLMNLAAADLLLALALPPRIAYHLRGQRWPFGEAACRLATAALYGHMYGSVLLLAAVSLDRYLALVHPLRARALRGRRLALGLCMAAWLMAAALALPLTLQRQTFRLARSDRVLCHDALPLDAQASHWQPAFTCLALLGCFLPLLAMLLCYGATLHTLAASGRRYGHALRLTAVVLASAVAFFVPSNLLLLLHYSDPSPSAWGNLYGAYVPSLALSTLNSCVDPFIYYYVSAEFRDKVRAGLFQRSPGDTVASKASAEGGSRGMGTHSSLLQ

PAR4 [2] = molecular target: T1, PAR4; assay: Human neutrophil chemotaxis to AYPGKF; type: cell-based; design: endogenous in cells; host or cells: human peripheral blood neutrophils; conditions: 100 μM AYPGKF
Description: (§1) (A) Human neutrophils (n=4 normal volunteers) were analyzed for surface expression of human PAR1, PAR2, and PAR4 by flow cytometry with PAR-specific antibodies. […] Chemotaxis index is the ratio of directed versus random migration over 30 min through a 5-μm pore filter.
P2pal-18S had no effect on PAR1-dependent platelet aggregation (FIG. 5A). Neither P2pal-18S nor P2pal-14GQ caused membrane disruption or apoptosis as assessed by propidium iodide uptake in SW620 cells with up to 30 μM concentrations of pepducin (FIG. 5B).

PAR2 [3] = molecular target: T2, PAR2 (Homo sapiens, UniProt P55085); assay: Calcium flux screen for PAR2 pepducin agonist and antagonist activity in SW620 cells; type: cell-based; design: SW620 colon adenocarcinoma cells that endogenously express PAR2; endogenous in cells; host or cells: SW620 (in A7 the SW620 cells were additionally stably transfected with PAR1); conditions: 3-4 μM and 14-15 μM pepducin
Target sequence in this assay (P55085 26-397): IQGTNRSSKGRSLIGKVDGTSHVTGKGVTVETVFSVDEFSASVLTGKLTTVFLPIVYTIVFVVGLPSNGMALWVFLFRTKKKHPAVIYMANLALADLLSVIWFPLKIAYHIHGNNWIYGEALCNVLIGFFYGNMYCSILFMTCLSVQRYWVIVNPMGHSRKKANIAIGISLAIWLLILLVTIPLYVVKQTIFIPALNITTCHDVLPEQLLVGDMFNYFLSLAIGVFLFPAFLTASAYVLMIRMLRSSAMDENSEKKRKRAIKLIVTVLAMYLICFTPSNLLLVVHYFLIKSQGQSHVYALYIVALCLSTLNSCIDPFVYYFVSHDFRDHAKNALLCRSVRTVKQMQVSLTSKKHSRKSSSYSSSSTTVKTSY
Description: (§2) (A) Agonist and antagonist activity of third intracellular (i3) loop PAR2 pepducins (structure shown on top) using calcium flux assays with SW620 colon adenocarcinoma cells that endogenously express PAR2. Each column of three calcium flux traces corresponds to the i3 pepducin sequence shown above. The top row is the agonist activity of 3-4 μM pepducin and the middle row is the agonist activity of 14-15 μM pepducin. […] Final concentration of DMSO vehicle was 0.2%. […] (C) Agonist activity for each pepducin from (A) is reported as initial velocity of calcium flux at 4 μM pepducin (†), or at 14-15 μM pepducin (‡).

PAR2 [4] = molecular target: T2, PAR2; assay: Human neutrophil chemotaxis to PAR2 agonists (trypsin, SLIGRL, tryptase); type: cell-based; design: SW620 colon adenocarcinoma cells that endogenously express PAR2; endogenous in cells; host or cells: SW620 (in A7 the SW620 cells were additionally stably transfected with PAR1)
Description: as §1
Target sequence in this assay (P55085 26-397): as above
The ability of some pepducin embodiments of the invention to antagonize PAR2-dependent activity of human neutrophils was tested. Neutrophils were isolated from the peripheral blood of healthy human volunteers and found to express high levels of surface PAR2 and PAR4 and lower apparent levels of PAR1 by flow cytometry (FIG. 3A). […] As human PAR2 shares 85% identity with mouse PAR2 and the mouse i3 loop retains all of the critical pharmacophores identified in the human PAR2 i3 loop, cross-species inhibition with mouse cells was tested.

PAR2 [5] = molecular target: T2, PAR2; assay: Agonist | (%)^†; design: SW620 colon adenocarcinoma cells that endogenously express PAR2; endogenous in cells; host or cells: SW620 (in A7 the SW620 cells were additionally stably transfected with PAR1); conditions: 4 µM
Target sequence in this assay (P55085 26-397 limits assumed): as the sequence (P55085 26-397) above
Description: as §2

[6] = test system: A549, HOP62, and HOP92 lung carcinoma cell lines; assay: Cytotoxicity/cell viability of lung carcinoma cells (MIT assay); type: cell-based, human; conditions: 3-day period
PAR1 = molecular target: T3, PAR1 (Homo sapiens, UniProt P25116); assay: ERK1/2 phosphorylation in A549 cells (thrombin or […]), Western blot; type: cell-based; design: endogenous in cells; host or cells: A549, HOP62, H1299, H522, H226, HOP92 lung carcinoma lines; conditions: A549 cells; pepducin 0.1-3 μM
T3 sequence (P25116 22-425): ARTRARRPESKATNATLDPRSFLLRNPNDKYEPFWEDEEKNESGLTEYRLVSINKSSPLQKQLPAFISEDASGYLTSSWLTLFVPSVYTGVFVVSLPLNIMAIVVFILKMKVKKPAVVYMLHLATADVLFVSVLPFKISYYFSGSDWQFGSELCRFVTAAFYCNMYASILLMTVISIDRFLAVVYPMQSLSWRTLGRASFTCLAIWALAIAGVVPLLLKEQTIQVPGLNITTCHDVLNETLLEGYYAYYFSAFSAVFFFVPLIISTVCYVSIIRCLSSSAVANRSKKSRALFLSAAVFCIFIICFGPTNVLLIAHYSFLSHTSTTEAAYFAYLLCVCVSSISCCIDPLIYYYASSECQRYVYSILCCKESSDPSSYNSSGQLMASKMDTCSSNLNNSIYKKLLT
Description: FIG. 9 illustrates that differential inhibition of PAR1-ERK activation by i3- and i1-derived PAR1 pepducins. (A-C): Western blots of lysates from A549 cells untreated, or treated with thrombin, SLIGKV (SEQ ID NO:29), or AYPGKF (SEQ ID NO:5). Indicated samples were pretreated with various concentrations (0.1 to 3 μmol/L) of P1pal-7, P1pal-10S, or P1pal-i1-11 before stimulation and immunoblotted with anti-phospho-ERK. (D-F): Quantification of the Western blots in (A-C) were conducted by densitometry and results are expressed relative to maximum (fold max) phosphorylation of pERK.
(B): A549 cells stimulated with 10 μM […] over 2 h. A549 cells pretreated with 0.1 μM P1pal-7 and stimulated with 10 μM […] (SEQ ID NO:30) for 5 min. Total ERK was used as a loading control.
Last, there has been a great deal of interest in understanding the mechanism of PAR1-mediated activation of MAP kinase cascade and PAR1-dependent cellular growth and differentiation, proliferation and gene transcription. […] The effects of i1 versus i3 PAR1 pepducins on ERK1/2 activation were examined in the A549 lung adenocarcinoma cell line. […] Inhibition experiments with a range of pepducin concentrations (0.1-3 μM) were conducted. […] The […] (SEQ ID NO:30) peptide gave a rapid and transient ERK1/2 phosphorylation signal that peaked at 5-15 min after stimulation. […] To determine the specificity of the PAR1 pepducin inhibitors, their effects on the closely related PAR2 and PAR4 receptors were also tested.

Inhibition of PAR4 calcium flux (PAR4 [1])	Antagonist activity, neutrophil chemotaxis, PAR4 (PAR4 [2])	Inhibition of chemotactic migration to tryptase (PAR2 [4]; 0.3 μM pepducin, 100 nM tryptase)	IC50 (PAR2 [4]; gradients of trypsin (30 nM) and SLIGRL (10 μM), 30 min, read-out: IC50, inhibition of neutrophil chemotaxis) [nM]	Agonist | (%)^† (PAR2 [5]) [%]	Effect on thrombin-induced ERK1/2 phosphorylation (PAR1)	SMILES	Agonist activity (calcium flux) (PAR2 [3])	Sensitivity of A549 cells (cytotoxicity) [6]
did not inhibit	no antagonist activity	completely blocked	140 to 200	3	–	CCCCCCCCCCCCCCCC(=O)N[C@@H](CCCNC(=N)N)C(=O)N[C@@H](CO)C(=O)N[C@@H](CO)C(=O)N[C@@H](C)C(=O)N[C@@H](CCSC)C(=O)N[C@@H](CC(=O)O)C(=O)N[C@@H](CCC(=O)O)C(=O)N[C@@H](CC(N)=O)C(=O)N[C@@H](CO)C(=O)N[C@@H](CCC(=O)O)C(=O)N[C@@H](CCCCN)C(=O)N[C@@H](CCCCN)C(=O)N[C@@H](CCCNC(=N)N)C(=O)N[C@@H](CCCCN)C(=O)N[C@@H](CO)C(=O)N[C@@H](C)C(=O)N[C@H](C(=O)N[C@@H](CCCCN)C(N)=O)[C@@H](C)CC [P2pal-18S]	no detectable or otherwise significant agonist activity	–
–	–	–	–	–	no effect	CCCCCCCCCCCCCCCC(=O)N[C@H](C(=O)N[C@@H](CC(C)C)C(=O)N[C@@H](CCCCN)C(=O)N[C@@H](CCSC)C(=O)N[C@@H](CCCCN)C(=O)N[C@H](C(=O)N[C@@H](CCCCN)C(=O)N[C@@H](CCCCN)C(=O)N1CCC[C@H]1C(=O)N[C@@H](C)C(=O)N[C@H](C(N)=O)C(C)C)C(C)C)[C@@H](C)CC [P1pal-i1-11] (Palmitoyl-ILKMKVKKPAV-NH2)	–	less sensitive
